Assay results as given in patent US10670605B2, “Cysteine reactive probes and uses thereof” (The Scripps Research Institute, priority 2015, dated 2020).
Values belong to the compound of their own block, whether it stands above or below them.

How the values were obtained:
Experiment in all cases: Competitive isoTOP-ABPP, cell lysates
Type in all cases: binding
XPO1 C34 (O14980) = XPO1 C34 (O14980) (Homo sapiens, UniProt O14980)
DCUN1D1 C115 (Q96GG9) = DCUN1D1 C115 (Q96GG9) (Homo sapiens, UniProt Q96GG9)
Chain of DCUN1D1 C115 (Q96GG9) (Q96GG9 whole entry): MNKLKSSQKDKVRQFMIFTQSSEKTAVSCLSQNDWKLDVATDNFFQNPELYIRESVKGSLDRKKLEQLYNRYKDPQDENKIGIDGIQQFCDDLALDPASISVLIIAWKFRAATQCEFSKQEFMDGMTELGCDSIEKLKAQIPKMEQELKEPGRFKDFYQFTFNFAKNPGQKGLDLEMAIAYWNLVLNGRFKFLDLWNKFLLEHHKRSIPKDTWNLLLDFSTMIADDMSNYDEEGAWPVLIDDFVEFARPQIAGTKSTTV

STAT3 C259 (P40763) = STAT3 C259 (P40763) (Homo sapiens, UniProt P40763)
Chain of STAT3 C259 (P40763) (P40763 whole entry): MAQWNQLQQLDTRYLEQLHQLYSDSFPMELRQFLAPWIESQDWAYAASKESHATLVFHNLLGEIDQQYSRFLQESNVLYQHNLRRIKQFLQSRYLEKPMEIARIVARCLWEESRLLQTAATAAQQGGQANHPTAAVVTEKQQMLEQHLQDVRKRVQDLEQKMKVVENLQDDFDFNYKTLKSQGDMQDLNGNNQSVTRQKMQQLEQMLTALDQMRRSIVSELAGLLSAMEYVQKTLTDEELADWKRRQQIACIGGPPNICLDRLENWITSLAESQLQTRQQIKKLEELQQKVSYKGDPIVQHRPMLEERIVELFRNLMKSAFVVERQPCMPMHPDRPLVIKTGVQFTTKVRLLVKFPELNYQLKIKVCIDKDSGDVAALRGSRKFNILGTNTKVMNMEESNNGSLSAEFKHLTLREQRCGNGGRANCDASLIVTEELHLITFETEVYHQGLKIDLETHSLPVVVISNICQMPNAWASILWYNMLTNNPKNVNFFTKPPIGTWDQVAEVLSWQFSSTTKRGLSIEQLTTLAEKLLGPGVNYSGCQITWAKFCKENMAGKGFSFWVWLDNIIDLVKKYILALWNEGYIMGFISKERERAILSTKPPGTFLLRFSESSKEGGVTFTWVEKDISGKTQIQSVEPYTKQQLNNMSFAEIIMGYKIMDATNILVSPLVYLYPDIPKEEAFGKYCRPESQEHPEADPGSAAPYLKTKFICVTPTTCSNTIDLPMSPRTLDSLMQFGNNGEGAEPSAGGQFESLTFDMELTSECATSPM

PDIA6 C190 (Q15084) = target: T1, PDIA6 C190 (Q15084) (Homo sapiens, UniProt Q15084)
T1 sequence (Q15084 20-440): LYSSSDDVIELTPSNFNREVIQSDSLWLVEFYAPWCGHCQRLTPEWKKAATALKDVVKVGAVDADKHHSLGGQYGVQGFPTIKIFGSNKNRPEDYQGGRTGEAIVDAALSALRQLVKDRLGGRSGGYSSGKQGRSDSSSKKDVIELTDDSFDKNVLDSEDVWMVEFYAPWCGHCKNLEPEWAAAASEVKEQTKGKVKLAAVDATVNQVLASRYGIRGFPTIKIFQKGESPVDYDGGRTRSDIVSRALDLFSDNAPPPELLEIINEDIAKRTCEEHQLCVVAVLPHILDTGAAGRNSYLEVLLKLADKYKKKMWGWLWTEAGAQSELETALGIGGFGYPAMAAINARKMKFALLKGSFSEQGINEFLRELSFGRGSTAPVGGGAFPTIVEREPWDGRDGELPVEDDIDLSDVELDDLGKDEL

SMARCC2 C145 (Q8TAQ2) = SMARCC2 C145 (Q8TAQ2) (Homo sapiens, UniProt Q8TAQ2)
Chain of SMARCC2 C145 (Q8TAQ2) (Q8TAQ2 whole entry): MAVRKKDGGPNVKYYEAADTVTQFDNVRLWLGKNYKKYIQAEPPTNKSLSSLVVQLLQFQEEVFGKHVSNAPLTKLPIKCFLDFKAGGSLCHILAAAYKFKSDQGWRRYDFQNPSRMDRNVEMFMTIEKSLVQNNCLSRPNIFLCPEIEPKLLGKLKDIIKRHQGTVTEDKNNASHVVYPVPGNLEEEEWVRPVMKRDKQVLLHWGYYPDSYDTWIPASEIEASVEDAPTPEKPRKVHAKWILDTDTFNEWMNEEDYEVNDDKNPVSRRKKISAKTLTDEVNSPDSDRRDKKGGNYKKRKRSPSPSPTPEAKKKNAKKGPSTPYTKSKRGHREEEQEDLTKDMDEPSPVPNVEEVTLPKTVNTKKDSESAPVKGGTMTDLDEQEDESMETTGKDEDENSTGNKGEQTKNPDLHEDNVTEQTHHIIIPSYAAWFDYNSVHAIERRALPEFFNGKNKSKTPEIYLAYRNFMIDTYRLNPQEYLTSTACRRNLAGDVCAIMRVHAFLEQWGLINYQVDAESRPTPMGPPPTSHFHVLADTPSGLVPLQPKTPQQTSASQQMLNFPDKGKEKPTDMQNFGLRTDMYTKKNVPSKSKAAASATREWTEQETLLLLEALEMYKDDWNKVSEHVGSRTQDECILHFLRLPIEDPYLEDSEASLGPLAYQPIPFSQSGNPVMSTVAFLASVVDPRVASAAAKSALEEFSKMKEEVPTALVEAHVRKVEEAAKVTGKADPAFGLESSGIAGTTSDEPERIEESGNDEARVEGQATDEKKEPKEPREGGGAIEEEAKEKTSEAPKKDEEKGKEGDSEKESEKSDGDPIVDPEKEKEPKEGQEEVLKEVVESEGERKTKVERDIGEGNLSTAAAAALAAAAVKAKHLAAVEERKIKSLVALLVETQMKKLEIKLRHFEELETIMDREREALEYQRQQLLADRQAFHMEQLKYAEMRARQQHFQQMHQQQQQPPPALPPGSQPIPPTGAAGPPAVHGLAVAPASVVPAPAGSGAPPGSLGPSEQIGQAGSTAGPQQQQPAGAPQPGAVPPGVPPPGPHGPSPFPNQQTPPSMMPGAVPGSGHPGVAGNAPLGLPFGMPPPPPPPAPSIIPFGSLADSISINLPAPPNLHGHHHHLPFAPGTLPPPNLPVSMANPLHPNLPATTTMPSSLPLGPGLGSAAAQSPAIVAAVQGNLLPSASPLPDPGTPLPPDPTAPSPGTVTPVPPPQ

ADA C75 (P00813) = target: T2, ADA C75 (P00813) (Homo sapiens, UniProt P00813)
T2 sequence (P00813 1-363): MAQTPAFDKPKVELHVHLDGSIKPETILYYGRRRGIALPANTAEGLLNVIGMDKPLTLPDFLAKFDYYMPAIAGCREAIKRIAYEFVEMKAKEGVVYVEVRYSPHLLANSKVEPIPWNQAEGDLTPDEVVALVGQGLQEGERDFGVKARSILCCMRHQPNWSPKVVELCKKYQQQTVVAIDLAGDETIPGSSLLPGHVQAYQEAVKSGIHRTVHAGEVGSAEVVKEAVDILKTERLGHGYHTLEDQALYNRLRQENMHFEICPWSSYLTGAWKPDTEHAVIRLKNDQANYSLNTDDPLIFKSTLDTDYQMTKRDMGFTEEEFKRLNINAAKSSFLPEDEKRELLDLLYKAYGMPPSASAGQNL

PRMT1 C109 (Q99873) = PRMT1 C109 (Q99873) (Homo sapiens, UniProt Q99873)
Chain of PRMT1 C109 (Q99873) (Q99873 whole entry): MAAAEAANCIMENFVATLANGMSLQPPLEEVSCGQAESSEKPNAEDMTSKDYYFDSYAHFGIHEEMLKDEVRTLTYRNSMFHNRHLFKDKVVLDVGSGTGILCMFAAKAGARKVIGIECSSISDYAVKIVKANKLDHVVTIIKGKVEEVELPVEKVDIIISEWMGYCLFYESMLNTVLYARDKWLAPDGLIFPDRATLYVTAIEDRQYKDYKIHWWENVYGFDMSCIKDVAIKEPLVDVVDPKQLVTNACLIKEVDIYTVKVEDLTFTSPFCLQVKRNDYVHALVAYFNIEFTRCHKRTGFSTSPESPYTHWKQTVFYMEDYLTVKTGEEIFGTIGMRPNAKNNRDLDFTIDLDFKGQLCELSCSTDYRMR

XPO1 C528 (O14980) = XPO1 C528 (O14980) (Homo sapiens, UniProt O14980)
Chain of XPO1 C528 (O14980) (O14980 whole entry): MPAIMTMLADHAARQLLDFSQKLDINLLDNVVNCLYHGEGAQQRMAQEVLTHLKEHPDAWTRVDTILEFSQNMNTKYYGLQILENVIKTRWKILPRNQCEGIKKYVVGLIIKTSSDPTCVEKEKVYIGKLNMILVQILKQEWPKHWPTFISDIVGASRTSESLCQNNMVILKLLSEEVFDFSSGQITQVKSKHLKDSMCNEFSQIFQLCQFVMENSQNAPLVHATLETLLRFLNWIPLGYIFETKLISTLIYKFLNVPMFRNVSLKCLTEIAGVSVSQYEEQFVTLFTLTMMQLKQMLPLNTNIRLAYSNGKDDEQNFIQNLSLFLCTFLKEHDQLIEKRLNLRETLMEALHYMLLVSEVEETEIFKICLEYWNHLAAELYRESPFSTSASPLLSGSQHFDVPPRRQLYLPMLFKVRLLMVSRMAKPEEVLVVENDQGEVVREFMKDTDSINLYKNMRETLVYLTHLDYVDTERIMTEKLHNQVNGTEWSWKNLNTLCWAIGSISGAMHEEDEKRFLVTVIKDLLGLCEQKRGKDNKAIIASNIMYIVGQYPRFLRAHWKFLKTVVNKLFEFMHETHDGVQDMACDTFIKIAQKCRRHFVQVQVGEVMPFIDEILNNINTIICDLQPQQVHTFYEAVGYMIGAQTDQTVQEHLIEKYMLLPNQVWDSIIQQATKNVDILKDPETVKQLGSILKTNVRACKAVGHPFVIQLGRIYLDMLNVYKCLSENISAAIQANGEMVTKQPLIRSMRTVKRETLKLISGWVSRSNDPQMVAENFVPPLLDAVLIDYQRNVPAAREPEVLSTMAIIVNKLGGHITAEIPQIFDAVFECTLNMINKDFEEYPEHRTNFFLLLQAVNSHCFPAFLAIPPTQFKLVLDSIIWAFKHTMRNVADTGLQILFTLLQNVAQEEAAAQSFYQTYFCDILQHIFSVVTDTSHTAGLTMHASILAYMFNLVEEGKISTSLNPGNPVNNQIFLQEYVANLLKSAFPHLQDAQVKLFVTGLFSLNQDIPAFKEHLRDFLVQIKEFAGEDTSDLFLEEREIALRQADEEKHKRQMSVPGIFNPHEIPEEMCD

ACAT1 C126 (P24752) = target: T3, ACAT1 C126 (P24752) (Homo sapiens, UniProt P24752)
T3 sequence (P24752 34-427): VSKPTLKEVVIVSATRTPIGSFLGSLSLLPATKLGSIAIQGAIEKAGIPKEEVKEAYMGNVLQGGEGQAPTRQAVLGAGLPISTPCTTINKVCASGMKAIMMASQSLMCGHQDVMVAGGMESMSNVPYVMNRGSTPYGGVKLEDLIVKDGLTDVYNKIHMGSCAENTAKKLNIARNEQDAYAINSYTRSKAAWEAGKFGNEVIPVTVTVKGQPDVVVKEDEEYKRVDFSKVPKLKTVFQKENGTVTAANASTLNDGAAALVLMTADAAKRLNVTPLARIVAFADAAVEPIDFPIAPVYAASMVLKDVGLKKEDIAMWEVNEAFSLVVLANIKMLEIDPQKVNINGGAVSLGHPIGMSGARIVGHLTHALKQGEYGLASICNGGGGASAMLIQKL

ACAT1 C119 (P24752) = target: T4, ACAT1 C119 (P24752) (Homo sapiens, UniProt P24752)
T4 sequence (P24752 34-427): T3 sequence (P24752 34-427)

Chain of XPO1 C34 (O14980) (O14980 whole entry): as the sequence (O14980 whole entry) above

R value (DMSO/fragment) (XPO1 C34 (O14980); 250 μM, in vitro, MDA-MB-231): 1.0
R value (DMSO/fragment) (XPO1 C34 (O14980); 250 μM, in vitro, Ramos): 0.2
R value (DMSO/fragment) (STAT3 C259 (P40763); 250 μM, in vitro, MDA-MB-231): 2.0
R value (DMSO/fragment) (STAT3 C259 (P40763); 250 μM, in vitro, Ramos): 1.9
R value (DMSO/fragment) (PDIA6 C190 (Q15084); 250 μM, in vitro, MDA-MB-231): 1.8
R value (DMSO/fragment) (PDIA6 C190 (Q15084); 250 μM, in vitro, Ramos): 1.2
R value (DMSO/fragment) (SMARCC2 C145 (Q8TAQ2); 250 μM, in vitro, MDA-MB-231): 1.3
R value (DMSO/fragment) (ADA C75 (P00813); 250 μM, in vitro, Ramos): 0.1
R value (DMSO/fragment) (PRMT1 C109 (Q99873); 250 μM, in vitro, MDA-MB-231): 1.1
R value (DMSO/fragment) (PRMT1 C109 (Q99873); 250 μM, in vitro, Ramos): 0.2
R value (DMSO/fragment) (XPO1 C528 (O14980); 250 μM, in vitro, MDA-MB-231): 0.9
R value (DMSO/fragment) (XPO1 C528 (O14980); 250 μM, in vitro, Ramos): 1.1
R value (DMSO/fragment) (ACAT1 C126 (P24752); 250 μM, in vitro, MDA-MB-231): 2.1
R value (DMSO/fragment) (ACAT1 C126 (P24752); 250 μM, in vitro, Ramos): 1.2
R value (DMSO/fragment) (ACAT1 C119 (P24752); 250 μM, in vitro, MDA-MB-231): 1.8
R value (DMSO/fragment) (ACAT1 C119 (P24752); 250 μM, in vitro, Ramos): 0.2
SMILES: COc1ccc(C2CC(c3cccs3)=NN2C(=O)CCl)cc1 (centres unmarked) [compound 4]

isoTOP-ABPP ratio, O14980_C34 (XPO1 C34 (O14980); 500 μM, invitro, 231): 1.2
isoTOP-ABPP ratio, O14980_C34 (XPO1 C34 (O14980); 500 μM, invitro, ramos): 0.7
isoTOP-ABPP ratio, Q96GG9_C115 (DCUN1D1 C115 (Q96GG9); 500 μM, invitro, 231): 1.3
isoTOP-ABPP ratio, Q96GG9_C115 (DCUN1D1 C115 (Q96GG9); 500 μM, invitro, ramos): 1.0
isoTOP-ABPP ratio, P40763_C259 (STAT3 C259 (P40763); 500 μM, invitro, 231): 3.4
isoTOP-ABPP ratio, Q15084_C190 (PDIA6 C190 (Q15084); 500 μM, invitro, ramos): 3.3
isoTOP-ABPP ratio Q8TAQ2_C145 (SMARCC2 C145 (Q8TAQ2); 500 μM, invitro, 231): 4.2
isoTOP-ABPP ratio, P00813_C75 (ADA C75 (P00813); 500 μM, invitro, ramos): 1.0
isoTOP-ABPP ratio, Q99873_C109 (PRMT1 C109 (Q99873); 500 μM, invitro, 231): 2.3
isoTOP-ABPP ratio, Q99873_C109 (PRMT1 C109 (Q99873); 500 μM, invitro, ramos): 1.3
isoTOP-ABPP ratio O14980_C528 (XPO1 C528 (O14980); 500 μM, invitro, 231): 0.8
isoTOP-ABPP ratio, P24752_C126 (ACAT1 C126 (P24752); 500 μM, invitro, 231): 3.2
isoTOP-ABPP ratio, P24752_C126 (ACAT1 C126 (P24752); 500 μM, invitro, ramos): 1.5
isoTOP-ABPP ratio P24752_C119 (ACAT1 C119 (P24752); 500 μM, invitro, 231): 1.5
isoTOP-ABPP ratio P24752_C119 (ACAT1 C119 (P24752); 500 μM, invitro, ramos): 1.4
SMILES: O=C(CCl)N1CCN(S(=O)(=O)c2ccccc2F)CC1 [compound 10]

isoTOP-ABPP ratio, O14980_C34 (XPO1 C34 (O14980); 500 μM, invitro, 231): 0.9
isoTOP-ABPP ratio, O14980_C34 (XPO1 C34 (O14980); 500 μM, invitro, ramos): 0.7
isoTOP-ABPP ratio, P40763_C259 (STAT3 C259 (P40763); 500 μM, invitro, ramos): 1.2
isoTOP-ABPP ratio, Q15084_C190 (PDIA6 C190 (Q15084); 500 μM, invitro, 231): 1.5
isoTOP-ABPP ratio, Q15084_C190 (PDIA6 C190 (Q15084); 500 μM, invitro, ramos): 1.3
isoTOP-ABPP ratio Q8TAQ2_C145 (SMARCC2 C145 (Q8TAQ2); 500 μM, invitro, ramos): 0.8
isoTOP-ABPP ratio, P00813_C75 (ADA C75 (P00813); 500 μM, invitro, ramos): 0.9
isoTOP-ABPP ratio, Q99873_C109 (PRMT1 C109 (Q99873); 500 μM, invitro, 231): 1.0
isoTOP-ABPP ratio, Q99873_C109 (PRMT1 C109 (Q99873); 500 μM, invitro, ramos): 0.9
isoTOP-ABPP ratio O14980_C528 (XPO1 C528 (O14980); 500 μM, invitro, ramos): 0.5
isoTOP-ABPP ratio, P24752_C126 (ACAT1 C126 (P24752); 500 μM, invitro, 231): 9.6
isoTOP-ABPP ratio, P24752_C126 (ACAT1 C126 (P24752); 500 μM, invitro, ramos): 20.0
isoTOP-ABPP ratio P24752_C119 (ACAT1 C119 (P24752); 500 μM, invitro, 231): 1.2
isoTOP-ABPP ratio P24752_C119 (ACAT1 C119 (P24752); 500 μM, invitro, ramos): 0.6
SMILES: O=C(CCl)NCCc1c[nH]c2ccccc12 [compound 13]

More lines, now with the values behind:

SMILES: O=C(CCl)Nc1cc(C(F)(F)F)cc(C(F)(F)F)c1 [compound 3]
R value (DMSO/fragment) (XPO1 C34 (O14980); 500 μM, in vitro, MDA-MB-231): 1.4
R value (DMSO/fragment) (XPO1 C34 (O14980); 500 μM, invitro, ramos): 1.6
R value (DMSO/fragment) (DCUN1D1 C115 (Q96GG9); 500 μM, invitro, ramos): 5.5
R value (DMSO/fragment) (STAT3 C259 (P40763); 500 μM, in vitro, MDA-MB-231): 2.5
R value (DMSO/fragment) (STAT3 C259 (P40763); 500 μM, invitro, ramos): 2.9
R value (DMSO/fragment) (PDIA6 C190 (Q15084); 500 μM, in vitro, MDA-MB-231): 19.9
R value (DMSO/fragment) (PDIA6 C190 (Q15084); 500 μM, invitro, ramos): 13.1
R value (DMSO/fragment) (SMARCC2 C145 (Q8TAQ2); 500 μM, in vitro, MDA-MB-231): 9.7
R value (DMSO/fragment) (SMARCC2 C145 (Q8TAQ2); 500 μM, invitro, ramos): 6.6
R value (DMSO/fragment) (ADA C75 (P00813); 500 μM, invitro, ramos): 1.5
R value (DMSO/fragment) (PRMT1 C109 (Q99873); 500 μM, in vitro, MDA-MB-231): 1.3
R value (DMSO/fragment) (PRMT1 C109 (Q99873); 500 μM, invitro, ramos): 1.8
R value (DMSO/fragment) (XPO1 C528 (O14980); 500 μM, in vitro, MDA-MB-231): 20.0
R value (DMSO/fragment) (XPO1 C528 (O14980); 500 μM, invitro, ramos): 20.0
R value (DMSO/fragment) (ACAT1 C126 (P24752); 500 μM, in vitro, MDA-MB-231): 2.6
R value (DMSO/fragment) (ACAT1 C126 (P24752); 500 μM, invitro, ramos): 2.4
R value (DMSO/fragment) (ACAT1 C119 (P24752); 500 μM, in vitro, MDA-MB-231): 2.1
R value (DMSO/fragment) (ACAT1 C119 (P24752); 500 μM, invitro, ramos): 5.3

SMILES: O=C(CCl)N1CCOCC1 [compound 22]
isoTOP-ABPP ratio (reactivity profile), O14980_C34 (XPO1 C34 (O14980); 500 μm in-vitro ramos_231): 1.1
isoTOP-ABPP ratio (reactivity profile), Q96GG9_C115 (DCUN1D1 C115 (Q96GG9); 500 μm in-vitro ramos): 0.8
isoTOP-ABPP ratio (reactivity profile), Q96GG9_C115 (DCUN1D1 C115 (Q96GG9); 500 μm in-vitro ramos_231): 1.0
isoTOP-ABPP ratio (reactivity profile), P40763_C259 (STAT3 C259 (P40763); 500 μm in-vitro ramos_231): 2.0
isoTOP-ABPP ratio (reactivity profile), Q15084_C190 (PDIA6 C190 (Q15084); 500 μm in-vitro ramos): 4.2
isoTOP-ABPP ratio (reactivity profile), Q15084_C190 (PDIA6 C190 (Q15084); 500 μm in-vitro ramos_231): 2.2
isoTOP-ABPP ratio (reactivity profile), Q8TAQ2_C145 (SMARCC2 C145 (Q8TAQ2); 500 μm in-vitro ramos): 1.2
isoTOP-ABPP ratio (reactivity profile), P00813_C75 (ADA C75 (P00813); 500 μm in-vitro ramos): 1.3
isoTOP-ABPP ratio (reactivity profile), Q99873_C109 (PRMT1 C109 (Q99873); 500 μm in-vitro ramos): 1.0
isoTOP-ABPP ratio (reactivity profile), Q99873_C109 (PRMT1 C109 (Q99873); 500 μm in-vitro ramos_231): 1.0
isoTOP-ABPP ratio (reactivity profile), P24752_C126 (ACAT1 C126 (P24752); 500 μm in-vitro ramos): 1.7
isoTOP-ABPP ratio (reactivity profile), P24752_C126 (ACAT1 C126 (P24752); 500 μm in-vitro ramos_231): 2.4
isoTOP-ABPP ratio (reactivity profile), P24752_C119 (ACAT1 C119 (P24752); 500 μm in-vitro ramos): 0.8
isoTOP-ABPP ratio (reactivity profile), P24752_C119 (ACAT1 C119 (P24752); 500 μm in-vitro ramos_231): 1.0
